What was measured:
Histamine H3 receptor [1] = molecular target: T1, Histamine H3 receptor (Cavia porcellus, UniProt Q9JI35); assay: Displacement of [3H]N-alpha-methylhistamine from histamine H3 receptor in guinea pig brain
Histamine H3 receptor [2] = molecular target: T1, Histamine H3 receptor; assay: Antagonist potency against histamine H3 receptor in an electrically stimulated guinea pig ileum; type: functional, tissue-based; conditions: read-out: pA2 (converted)
Cytochrome P450 2D6 = Cytochrome P450 2D6 (Homo sapiens, UniProt P10635); assay: Inhibition of CYP2D6 in human liver microsomes; type: ADME, Microsome
Sequence of Cytochrome P450 2D6 (P10635 whole entry): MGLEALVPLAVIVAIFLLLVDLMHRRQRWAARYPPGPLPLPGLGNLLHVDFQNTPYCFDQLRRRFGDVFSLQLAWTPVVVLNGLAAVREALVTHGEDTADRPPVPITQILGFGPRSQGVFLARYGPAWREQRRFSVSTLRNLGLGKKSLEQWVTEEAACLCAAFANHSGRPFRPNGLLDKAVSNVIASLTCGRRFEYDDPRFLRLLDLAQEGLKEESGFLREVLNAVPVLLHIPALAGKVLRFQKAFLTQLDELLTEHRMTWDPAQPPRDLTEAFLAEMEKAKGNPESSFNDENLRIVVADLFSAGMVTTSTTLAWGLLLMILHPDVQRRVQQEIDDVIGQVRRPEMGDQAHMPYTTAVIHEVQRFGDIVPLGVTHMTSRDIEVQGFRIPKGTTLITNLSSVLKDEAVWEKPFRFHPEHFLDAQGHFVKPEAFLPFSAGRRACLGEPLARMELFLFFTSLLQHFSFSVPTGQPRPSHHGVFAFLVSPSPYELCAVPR

Histamine H3 receptor [3] = molecular target: Histamine H3 receptor (Homo sapiens, UniProt Q9Y5N1); assay: Displacement of [3H]N-alpha-methylhistamine from histamine H3 receptor in human brain
Sequence of Histamine H3 receptor (Homo sapiens, UniProt Q9Y5N1) (Q9Y5N1 whole entry): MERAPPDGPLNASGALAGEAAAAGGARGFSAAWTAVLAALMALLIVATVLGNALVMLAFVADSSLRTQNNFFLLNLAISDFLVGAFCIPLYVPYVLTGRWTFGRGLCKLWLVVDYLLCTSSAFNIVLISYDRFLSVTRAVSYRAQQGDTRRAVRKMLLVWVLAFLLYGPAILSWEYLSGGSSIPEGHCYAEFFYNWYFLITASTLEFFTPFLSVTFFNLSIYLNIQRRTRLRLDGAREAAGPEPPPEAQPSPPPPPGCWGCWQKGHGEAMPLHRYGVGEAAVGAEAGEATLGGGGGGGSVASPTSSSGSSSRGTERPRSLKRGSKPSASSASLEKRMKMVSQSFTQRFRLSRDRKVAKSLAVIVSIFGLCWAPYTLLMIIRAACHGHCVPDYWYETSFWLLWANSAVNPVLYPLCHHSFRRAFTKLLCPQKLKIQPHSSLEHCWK

Histamine H1 receptor = Histamine H1 receptor (Cavia porcellus, UniProt P31389); assay: Displacement of [3H]N-alpha-methylhistamine from histamine H1 receptor in guinea pig brain
Sequence of Histamine H1 receptor (P31389 whole entry): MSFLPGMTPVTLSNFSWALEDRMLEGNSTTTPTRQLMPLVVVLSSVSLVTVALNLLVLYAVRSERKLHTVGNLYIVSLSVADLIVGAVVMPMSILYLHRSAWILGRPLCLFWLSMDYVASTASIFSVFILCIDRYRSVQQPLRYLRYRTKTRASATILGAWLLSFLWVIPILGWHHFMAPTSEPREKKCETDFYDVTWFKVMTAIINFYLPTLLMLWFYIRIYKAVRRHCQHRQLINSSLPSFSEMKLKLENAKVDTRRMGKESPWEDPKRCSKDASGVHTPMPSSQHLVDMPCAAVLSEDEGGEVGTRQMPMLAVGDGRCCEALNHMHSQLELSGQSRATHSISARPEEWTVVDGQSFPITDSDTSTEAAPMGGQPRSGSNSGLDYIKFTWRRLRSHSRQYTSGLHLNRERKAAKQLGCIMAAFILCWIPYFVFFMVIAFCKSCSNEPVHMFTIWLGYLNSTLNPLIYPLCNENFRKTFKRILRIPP

T1 sequence (Q9JI35 whole entry): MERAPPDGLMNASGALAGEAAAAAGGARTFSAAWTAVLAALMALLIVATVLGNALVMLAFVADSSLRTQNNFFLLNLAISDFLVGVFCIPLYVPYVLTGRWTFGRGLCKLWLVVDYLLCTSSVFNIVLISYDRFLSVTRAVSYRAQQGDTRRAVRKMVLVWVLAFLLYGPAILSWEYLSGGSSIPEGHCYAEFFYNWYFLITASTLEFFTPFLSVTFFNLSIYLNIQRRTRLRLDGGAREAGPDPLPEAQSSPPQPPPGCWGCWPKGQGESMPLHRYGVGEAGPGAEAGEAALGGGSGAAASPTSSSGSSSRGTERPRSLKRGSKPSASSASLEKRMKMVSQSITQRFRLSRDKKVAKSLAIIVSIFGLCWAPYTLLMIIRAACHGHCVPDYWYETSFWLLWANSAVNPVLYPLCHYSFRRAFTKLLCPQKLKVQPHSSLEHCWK

A Ki (Histamine H3 receptor [1]) of 44 nM was found for O/N=C/c1ccc(OCCCN2CCC(Cc3c[nH]cn3)CC2)cc1 in this work.
A Ki (Histamine H3 receptor [1]) of 21 nM was found for O=C(CCN1CCC(Cc2c[nH]cn2)CC1)NCc1ccc(Cl)cc1 in this work.
A Ki (Histamine H3 receptor [1]) of 40 nM was found for O=C(CCCCN1CCC(Cc2cnc[nH]2)CC1)Nc1ccc(Cl)cc1 in this work.
A Kb (Histamine H3 receptor [2]) of 39.8 nM and a Ki (Histamine H3 receptor [1]) of 18 nM were found for CCCCCCC(=O)N1CCC(Cc2c[nH]cn2)CC1 in this work.
A Ki (Histamine H3 receptor [1]) of 13 nM was found for O=C(NCCCN1CCC(Cc2cnc[nH]2)CC1)c1ccc(Cl)cc1 in this work.
A Kb (Histamine H3 receptor [2]) of 1.58 nM and a Ki (Histamine H3 receptor [1]) of 3 nM were found for COC(=O)c1ccc(NC(=O)CCN2CCC(Cc3cnc[nH]3)CC2)cc1 in this work.
A Ki (Histamine H3 receptor [1]) of 20 nM was found for N#Cc1ccc(OCCCN2CCC(Cc3c[nH]cn3)CC2)cc1 in this work.
A Kb (Histamine H3 receptor [2]) of 0.126 nM, a Ki (Histamine H3 receptor [1]) of 0.2 nM and an IC50 (Cytochrome P450 2D6) of 100 nM were found for O=C(CCN1CCC(Cc2c[nH]cn2)CC1)Nc1cccc(F)c1 in this work. For the same molecule, the Ki (Histamine H3 receptor [3]) was 1.9 nM.
A Kb (Histamine H3 receptor [2]) of 12.6 nM and a Ki (Histamine H3 receptor [1]) of 9 nM were found for O=C(NCCN1CCC(Cc2cnc[nH]2)CC1)c1ccc(Cl)cc1 in this work.
A Kb (Histamine H3 receptor [2]) of 6.31 nM and a Ki (Histamine H3 receptor [1]) of 3 nM were found for O=C(CCN1CCC(Cc2cnc[nH]2)CC1)NC1CCCCC1 in this work.
A Kb (Histamine H3 receptor [2]) of 1.26 nM and a Ki (Histamine H3 receptor [1]) of 2 nM were found for O=C(CCN1CCC(Cc2c[nH]cn2)CC1)Nc1ccccc1 in this work.
A Ki (Histamine H3 receptor [1]) of 170 nM was found for O=S(=O)(CCN1CCC(Cc2c[nH]cn2)CC1)Nc1ccc(Cl)cc1 in this work.
A Kb (Histamine H3 receptor [2]) of 1.58 nM and a Ki (Histamine H3 receptor [1]) of 3 nM were found for COc1ccc(NC(=O)CCN2CCC(Cc3cnc[nH]3)CC2)cc1 in this work.
A Kb (Histamine H3 receptor [2]) of 5.01 nM and a Ki (Histamine H3 receptor [1]) of 17 nM were found for O=C(CCCN1CCC(Cc2cnc[nH]2)CC1)Nc1ccc(Cl)cc1 in this work.
A Kb (Histamine H3 receptor [2]) of 0.158 nM and a Ki (Histamine H3 receptor [3]) of 0.4 nM were found for O=C(CCN1CCC(Cc2c[nH]cn2)CC1)Nc1cccc(Cl)c1 in this work.
A Ki (Histamine H3 receptor [1]) of 970 nM was found for O=C(CCC(=O)N1CCC(Cc2c[nH]cn2)CC1)Nc1ccc(Cl)cc1 in this work.
A Kb (Histamine H3 receptor [2]) of 1.58 nM and a Ki (Histamine H3 receptor [1]) of 6 nM were found for Clc1ccc(CCCCN2CCC(Cc3cnc[nH]3)CC2)cc1 in this work.
A Kb (Histamine H3 receptor [2]) of 5.01 nM was found for c1ccc(OCCCN2CCC(Cc3c[nH]cn3)CC2)cc1 in this work.
A Ki (Histamine H3 receptor [1]) of 625 nM was found for COC(=O)c1ccc(OCCC(=O)N2CCC(Cc3c[nH]cn3)CC2)cc1 in this work.
A Kb (Histamine H3 receptor [2]) of 79.4 nM and a Ki (Histamine H3 receptor [1]) of 25 nM were found for O=S(=O)(CCCN1CCC(Cc2c[nH]cn2)CC1)c1ccccc1 in this work.
A Kb (Histamine H3 receptor [2]) of 0.0794 nM, a Ki (Histamine H1 receptor) of 290 nM and an IC50 (Cytochrome P450 2D6) of 40 nM were found for O=C(CCN1CCC(Cc2c[nH]cn2)CC1)Nc1ccc(Cl)cc1 in this work. It also gave a Ki (Histamine H3 receptor [3]) of 1.7 nM.
A Kb (Histamine H3 receptor [2]) of 12.6 nM and a Ki (Histamine H3 receptor [1]) of 2 nM were found for Clc1cccc(OCCCN2CCC(Cc3cnc[nH]3)CC2)c1 in this work.
A Kb (Histamine H3 receptor [2]) of 2.51 nM was found for CCCCCCCN1CCC(Cc2cnc[nH]2)CC1 in this work.
A Ki (Histamine H3 receptor [1]) of 60 nM was found for CN(C(=O)CCN1CCC(Cc2cnc[nH]2)CC1)c1ccc(Cl)cc1 in this work.
A Kb (Histamine H3 receptor [2]) of 15.8 nM was found for O=C(CCOc1ccccc1)N1CCC(Cc2cnc[nH]2)CC1 in this work.
A Kb (Histamine H3 receptor [2]) of 15.8 nM and a Ki (Histamine H3 receptor [1]) of 9 nM were found for O=C(CCCc1ccccc1)N1CCC(Cc2cnc[nH]2)CC1 in this work.
A Kb (Histamine H3 receptor [2]) of 3.98 nM and a Ki (Histamine H3 receptor [1]) of 2 nM were found for Clc1cccc(NCCCN2CCC(Cc3cnc[nH]3)CC2)c1 in this work.
A Kb (Histamine H3 receptor [2]) of 6.31 nM and a Ki (Histamine H3 receptor [1]) of 5 nM were found for c1ccc(CCCCN2CCC(Cc3cnc[nH]3)CC2)cc1 in this work.
A Ki (Histamine H3 receptor [1]) of 0.4 nM was found for c1nc(CC2CCNCC2)c[nH]1 [IMMEPIP] in this work.

Reference: ChEMBL document CHEMBL1147768, “Novel histamine H3 receptor antagonists based on the 4-[(1H-imidazol-4-yl)methyl]piperidine scaffold” (Bioorg Med Chem Lett, 2006)
